Results: PubChem BioAssay AID743234 (The Scripps Research Institute Molecular Screening Center, 2013)
The source made the active and inactive calls. No rule for the calls is given here.

Target: Trace amine-associated receptor 1 (Homo sapiens) (UniProt Q96RJ0)
Assay: blockers of human TAAR1 signalling – cell-based, fluorescence, late-stage follow-up (AID 743234)
Conditions: TAAR1-expressing cells, fluorescence antagonist readout

Sequence of Trace amine-associated receptor 1 (Homo sapiens) (Q96RJ0 whole entry, looked up): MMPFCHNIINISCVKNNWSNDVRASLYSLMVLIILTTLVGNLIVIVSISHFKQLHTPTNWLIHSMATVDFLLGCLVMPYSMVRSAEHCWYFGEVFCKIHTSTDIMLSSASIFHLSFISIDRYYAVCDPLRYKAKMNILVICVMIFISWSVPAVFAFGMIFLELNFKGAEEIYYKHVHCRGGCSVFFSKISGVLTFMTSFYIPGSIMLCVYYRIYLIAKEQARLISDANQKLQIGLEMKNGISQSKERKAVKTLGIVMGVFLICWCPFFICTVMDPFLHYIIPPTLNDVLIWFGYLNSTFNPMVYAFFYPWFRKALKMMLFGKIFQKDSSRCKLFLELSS

| SMILES | IC50 |
| --- | --- |
| O=C(NCCn1cc(SCc2ccccc2F)c2ccccc21)c1c(F)cccc1F | inactive |
| Cc1cccc(C(C#N)c2nc3ccccc3nc2C(F)(F)F)c1 (stereo not given) | 1.73 µM |

More lines, now with the values ahead:

| IC50 | SMILES |
| --- | --- |
| 1.6 µM | Cc1ccc(CSCC(=O)Nc2cc(S(=O)(=O)N3CCOCC3)ccc2OCC(F)(F)F)cc1 |
| inactive | COc1cccc(-c2nn(-c3ccccc3)cc2C(=O)Nc2nccs2)c1 |
| > 29.9 µM (inactive) | COc1cc(NC(=O)c2cc3ccccc3o2)c(OC)cc1Cl |
